According to publication PMC5650530 (ACS chemical biology, 2017):
Read-outs that look alike come from different tables or passages of the source.

Legend:
PTGR2 [1] = target: T1, PTGR2 (Homo sapiens, UniProt Q8N8N7); assay: LiPIP; format: binding; conditions: KDT501 25 and 50 μM; A-DA or AEA-DA probe 10 μM; HEK293T cells
Target sequence in this assay (Q8N8N7 whole entry): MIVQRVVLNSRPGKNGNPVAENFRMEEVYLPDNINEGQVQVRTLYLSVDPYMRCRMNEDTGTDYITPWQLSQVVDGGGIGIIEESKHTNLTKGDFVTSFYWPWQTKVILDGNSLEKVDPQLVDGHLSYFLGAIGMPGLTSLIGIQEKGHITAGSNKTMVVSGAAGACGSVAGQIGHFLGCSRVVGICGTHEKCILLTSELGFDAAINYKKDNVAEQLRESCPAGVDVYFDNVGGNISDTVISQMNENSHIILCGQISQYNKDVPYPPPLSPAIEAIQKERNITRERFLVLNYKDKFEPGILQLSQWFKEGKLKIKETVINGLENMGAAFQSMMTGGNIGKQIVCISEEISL

BAIAP2 = target: T2, BAIAP2 (Homo sapiens, UniProt Q9UQB8); assay: LiPIP; format: binding; conditions: KDT501 25 and 50 μM; A-DA or AEA-DA probe 10 μM; HEK293T cells
T2 sequence (Q9UQB8 1-552): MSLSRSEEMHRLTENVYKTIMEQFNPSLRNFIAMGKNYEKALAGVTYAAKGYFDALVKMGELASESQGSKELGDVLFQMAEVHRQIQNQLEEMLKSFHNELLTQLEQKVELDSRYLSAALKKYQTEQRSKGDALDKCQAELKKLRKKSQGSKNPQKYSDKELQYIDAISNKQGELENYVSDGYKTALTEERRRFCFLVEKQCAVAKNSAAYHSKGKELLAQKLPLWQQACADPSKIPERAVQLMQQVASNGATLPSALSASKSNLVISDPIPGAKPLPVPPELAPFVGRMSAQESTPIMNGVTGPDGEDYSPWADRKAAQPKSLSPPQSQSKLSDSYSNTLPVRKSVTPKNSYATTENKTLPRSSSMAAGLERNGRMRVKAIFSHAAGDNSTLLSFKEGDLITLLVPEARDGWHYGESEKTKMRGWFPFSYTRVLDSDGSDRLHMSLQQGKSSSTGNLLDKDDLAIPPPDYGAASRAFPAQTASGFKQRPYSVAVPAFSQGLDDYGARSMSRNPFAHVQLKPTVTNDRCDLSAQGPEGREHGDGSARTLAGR

PTGR2 [2] = target: T1, PTGR2; format: binding; conditions: read-out: IC50, blockade of A-DA probe labeling of recombinant PTGR2; transfected cell lysates; A-DA 5 μM; 95% CI 3.0–5.3 μM
Target sequence in this assay (Q8N8N7 whole entry, species assumed): as the sequence (Q8N8N7 whole entry) above

PTGR2 [3] = target: T1, PTGR2; assay: 15-keto PGE2 substrate assay with recombinant PTGR2 protein; format: biochemical; conditions: read-out: IC50, inhibition of dhk-PGE2 production, 15-keto PGE2 and NADPH, 95% CI 4.4–16 μM
Target sequence in this assay (Q8N8N7 whole entry): as the sequence (Q8N8N7 whole entry) above

PTGR2 [4] = target: T1, PTGR2; assay: 15-keto PGE2 reductase activity of PTGR2-transfected HEK293T cell lysates; format: biochemical; conditions: read-out: IC50, inhibition of 15-keto PGE2 reductase activity; lysates from HEK293T cells transfected with PTGR2; 95% CI 1.4–2.4 μM
Target sequence in this assay (Q8N8N7 whole entry, species assumed): as the sequence (Q8N8N7 whole entry) above

[5] = reference not given; cited from earlier work
PPAR-γ = conditions: cited from earlier work
CLPP = CLPP (Mus musculus, UniProt O88696); assay: LiPIP in Neuro2a cells, CLPP; format: binding; conditions: drug 30 μM, lipid probe 10 μM
SGPL1 = target: T3, SGPL1 (Mus musculus, UniProt Q8R0X7); assay: LiPIP in Neuro2a cells, SGPL1; format: binding; conditions: drug 30 μM, lipid probe 10 μM
T3 sequence (Q8R0X7 1-568): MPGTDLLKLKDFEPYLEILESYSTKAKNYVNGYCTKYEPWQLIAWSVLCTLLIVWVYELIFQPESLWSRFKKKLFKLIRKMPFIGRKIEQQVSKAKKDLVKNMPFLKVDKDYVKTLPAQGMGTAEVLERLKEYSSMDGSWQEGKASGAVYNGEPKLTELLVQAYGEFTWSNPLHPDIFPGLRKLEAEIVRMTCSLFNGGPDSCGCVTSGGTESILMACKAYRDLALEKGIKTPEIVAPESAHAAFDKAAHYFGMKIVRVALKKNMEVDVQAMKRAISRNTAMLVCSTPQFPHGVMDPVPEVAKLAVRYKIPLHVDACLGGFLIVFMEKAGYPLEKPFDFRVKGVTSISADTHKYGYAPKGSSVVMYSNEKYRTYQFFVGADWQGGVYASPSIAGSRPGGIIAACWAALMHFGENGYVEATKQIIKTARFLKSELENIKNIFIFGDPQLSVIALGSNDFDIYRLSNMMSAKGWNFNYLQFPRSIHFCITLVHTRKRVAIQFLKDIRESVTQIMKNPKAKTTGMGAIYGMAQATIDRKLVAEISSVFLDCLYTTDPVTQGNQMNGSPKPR

EPHX1 = target: T4, EPHX1 (Mus musculus, UniProt Q9D379); assay: LiPIP in Neuro2a cells, EPHX1; format: binding; conditions: drug 30 μM, lipid probe 10 μM
T4 sequence (Q9D379 1-455): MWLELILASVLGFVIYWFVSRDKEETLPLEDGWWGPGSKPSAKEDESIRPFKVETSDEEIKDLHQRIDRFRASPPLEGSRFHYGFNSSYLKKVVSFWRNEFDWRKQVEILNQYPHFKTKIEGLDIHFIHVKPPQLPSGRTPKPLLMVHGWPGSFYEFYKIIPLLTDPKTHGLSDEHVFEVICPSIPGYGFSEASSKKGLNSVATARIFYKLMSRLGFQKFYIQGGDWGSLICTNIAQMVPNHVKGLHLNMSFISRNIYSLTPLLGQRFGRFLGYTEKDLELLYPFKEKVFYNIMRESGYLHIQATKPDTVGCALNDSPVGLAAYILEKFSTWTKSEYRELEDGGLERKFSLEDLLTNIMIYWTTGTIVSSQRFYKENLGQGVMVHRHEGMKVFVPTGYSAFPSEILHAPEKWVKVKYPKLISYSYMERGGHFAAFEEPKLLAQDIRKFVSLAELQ

TMEM97 = target: T5, TMEM97 (Mus musculus, UniProt Q8VD00); assay: LiPIP in Neuro2a cells, TMEM97; format: binding; conditions: drug 30 μM, lipid probe 10 μM
T5 sequence (Q8VD00 1-176): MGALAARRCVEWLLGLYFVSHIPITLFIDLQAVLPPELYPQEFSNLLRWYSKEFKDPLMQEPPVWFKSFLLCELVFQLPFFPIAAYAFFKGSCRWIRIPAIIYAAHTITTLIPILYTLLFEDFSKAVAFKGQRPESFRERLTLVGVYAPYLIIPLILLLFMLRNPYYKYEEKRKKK

mSGPL1 [6] = target: T6, mSGPL1 (Mus musculus, UniProt Q8R0X7); assay: Gel-based blockade of AEA-DA labeling of recombinant mSGPL1 in HEK293T cells; format: binding; conditions: recombinant mSGPL1 expressed in HEK293T cells; AEA-DA 2 μM
T6 sequence (Q8R0X7 1-568): T3 sequence (Q8R0X7 1-568)

mSGPL1 [7] = target: T6, mSGPL1; assay: AEA-DA probe interactions with mSGPL1 in vitro; format: binding; conditions: Fig. S3c
mSGPL1 [8] = target: T6, mSGPL1; format: biochemical; conditions: tested at concentrations up to 200 μM
rSGPL1 = target: T7, rSGPL1 (Rattus norvegicus, UniProt Q8CHN6); format: biochemical; conditions: tested at concentrations up to 200 μM
T7 sequence (Q8CHN6 1-568): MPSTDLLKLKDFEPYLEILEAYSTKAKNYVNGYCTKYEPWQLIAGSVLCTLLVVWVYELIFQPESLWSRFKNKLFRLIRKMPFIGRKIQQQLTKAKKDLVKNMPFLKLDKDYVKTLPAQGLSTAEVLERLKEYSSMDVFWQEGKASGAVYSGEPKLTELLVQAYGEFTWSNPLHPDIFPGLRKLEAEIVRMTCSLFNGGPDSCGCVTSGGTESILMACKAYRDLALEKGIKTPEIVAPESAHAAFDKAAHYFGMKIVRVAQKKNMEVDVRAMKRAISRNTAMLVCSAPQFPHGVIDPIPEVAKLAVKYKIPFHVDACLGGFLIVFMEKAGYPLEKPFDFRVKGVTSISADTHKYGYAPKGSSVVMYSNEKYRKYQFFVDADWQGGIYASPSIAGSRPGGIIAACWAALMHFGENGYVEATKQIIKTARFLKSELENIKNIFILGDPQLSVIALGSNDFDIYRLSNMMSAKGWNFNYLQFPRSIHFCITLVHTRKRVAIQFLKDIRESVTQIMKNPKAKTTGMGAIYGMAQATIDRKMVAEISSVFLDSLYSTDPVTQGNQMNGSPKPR

hSGPL1 = target: T8, hSGPL1 (Homo sapiens, UniProt O95470); format: biochemical; conditions: tested at concentrations up to 200 μM
T8 sequence (O95470 1-568): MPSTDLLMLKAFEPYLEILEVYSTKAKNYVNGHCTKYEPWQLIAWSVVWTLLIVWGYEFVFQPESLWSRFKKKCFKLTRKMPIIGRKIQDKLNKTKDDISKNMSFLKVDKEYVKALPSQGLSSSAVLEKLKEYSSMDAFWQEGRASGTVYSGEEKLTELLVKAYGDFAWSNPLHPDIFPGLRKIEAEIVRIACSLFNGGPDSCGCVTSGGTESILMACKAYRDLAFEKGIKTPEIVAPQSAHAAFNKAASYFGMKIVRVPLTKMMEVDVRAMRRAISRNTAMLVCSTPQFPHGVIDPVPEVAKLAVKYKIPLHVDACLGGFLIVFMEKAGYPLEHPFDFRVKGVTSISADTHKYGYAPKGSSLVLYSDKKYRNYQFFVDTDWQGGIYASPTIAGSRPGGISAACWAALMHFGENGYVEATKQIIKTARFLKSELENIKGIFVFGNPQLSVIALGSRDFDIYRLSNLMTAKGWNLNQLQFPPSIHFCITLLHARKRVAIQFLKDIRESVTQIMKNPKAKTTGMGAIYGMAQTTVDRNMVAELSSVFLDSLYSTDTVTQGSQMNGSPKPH

[9] = tested on: oligodendrocyte precursor cell (OPC); conditions: cited from earlier work

Chain of CLPP (O88696 53-272): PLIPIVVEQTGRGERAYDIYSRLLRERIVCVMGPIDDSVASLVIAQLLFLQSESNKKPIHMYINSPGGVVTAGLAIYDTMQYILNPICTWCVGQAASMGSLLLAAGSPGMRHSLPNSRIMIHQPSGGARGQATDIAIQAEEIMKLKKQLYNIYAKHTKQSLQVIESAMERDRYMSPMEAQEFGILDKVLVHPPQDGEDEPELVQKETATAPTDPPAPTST

| blockade of lipid probe enrichment of PTGR2 (PTGR2 [1]) | blockade of lipid probe enrichment of BAIAP2 (BAIAP2) | IC50 (PTGR2 [2]) [µM] | IC50 (PTGR2 [3]) [µM] | IC50 (PTGR2 [4]) [µM] | SILAC ratio (light/heavy), CLPP (CLPP) | SILAC ratio (light/heavy), SGPL1 (SGPL1) | SILAC ratio (light/heavy), EPHX1 (EPHX1) | SILAC ratio (light/heavy), TMEM97 (TMEM97) | blockade of AEA-DA probe binding to mSGPL1 (mSGPL1 [6]) | blockade of AEA-DA probe interactions with mSGPL1 in vitro (mSGPL1 [7]) | inhibition of mSGPL1 activity (mSGPL1 [8]) | inhibition of rSGPL1 activity (rSGPL1) | inhibition of hSGPL1 activity (hSGPL1) | Structure (SMILES) | moderately potent activity in cells (concentration) [5] [µM] | agonism of PPAR-γ (PPAR-γ) | OPC differentiation by phenotypic screening [9] |
| --- | --- | --- | --- | --- | --- | --- | --- | --- | --- | --- | --- | --- | --- | --- | --- | --- | --- |
| substantive blockade of enrichment | substantive blockade of enrichment | 4 | 8.4 | 1.8 |  |  |  |  |  |  |  |  |  | CC(C)CCC(=O)[C@]1(O)C(=O)[C-](C(=O)CC(C)C)C(=O)[C@H]1CCC(C)C.[K+] (some centres unmarked) [KDT501] | 10 to 50 | weak agonist |  |
|  |  |  |  |  | ~ 1.0 | ~ 1.0 | ~ 1.0 | ~ 1.0 | but not voriconazole | but not voriconazole | did not inhibit | did not inhibit | did not inhibit | C[C@@H](c1ncncc1F)[C@](O)(Cn1cncn1)c1ccc(F)cc1F [voriconazole] |  |  | inactive |
